Read-outs that look alike come from different tables or passages of the source. Blank lines part the entries; values can stand above or below the compound they belong to.
Legend:
Assay in all cases: cell-based
Set-up in all cases: species or system HEK293A; AP-TGFα shedding assay, transfected GPCR plus chimeric Gα mixture, AP release as % of TPA response
Settings in all cases: HEK293-A
[1] = target: T1, lysophosphatidic acid receptor 4 (Homo sapiens, UniProt Q99677)
T1 construct: gene LPAR4

[2] = target: T2, prostaglandin E receptor 3 iso6 (Homo sapiens, UniProt P43115)
T2 construct: gene PTGER3; iso6
T2 sequence (P43115 1-390): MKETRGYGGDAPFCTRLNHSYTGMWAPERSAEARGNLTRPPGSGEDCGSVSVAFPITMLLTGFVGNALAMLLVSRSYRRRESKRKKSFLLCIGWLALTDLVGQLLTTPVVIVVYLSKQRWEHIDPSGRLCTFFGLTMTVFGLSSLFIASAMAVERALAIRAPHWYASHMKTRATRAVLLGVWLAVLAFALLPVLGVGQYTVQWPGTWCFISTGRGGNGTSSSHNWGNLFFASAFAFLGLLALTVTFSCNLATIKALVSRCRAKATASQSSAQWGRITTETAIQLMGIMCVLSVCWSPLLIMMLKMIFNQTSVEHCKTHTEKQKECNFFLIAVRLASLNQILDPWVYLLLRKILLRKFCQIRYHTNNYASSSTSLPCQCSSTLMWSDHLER

[3] = target: T3, relaxin/insulin-like family peptide receptor 3 (Homo sapiens, UniProt Q9NSD7)
T3 construct: gene RXFP3
T3 sequence (Q9NSD7 1-469): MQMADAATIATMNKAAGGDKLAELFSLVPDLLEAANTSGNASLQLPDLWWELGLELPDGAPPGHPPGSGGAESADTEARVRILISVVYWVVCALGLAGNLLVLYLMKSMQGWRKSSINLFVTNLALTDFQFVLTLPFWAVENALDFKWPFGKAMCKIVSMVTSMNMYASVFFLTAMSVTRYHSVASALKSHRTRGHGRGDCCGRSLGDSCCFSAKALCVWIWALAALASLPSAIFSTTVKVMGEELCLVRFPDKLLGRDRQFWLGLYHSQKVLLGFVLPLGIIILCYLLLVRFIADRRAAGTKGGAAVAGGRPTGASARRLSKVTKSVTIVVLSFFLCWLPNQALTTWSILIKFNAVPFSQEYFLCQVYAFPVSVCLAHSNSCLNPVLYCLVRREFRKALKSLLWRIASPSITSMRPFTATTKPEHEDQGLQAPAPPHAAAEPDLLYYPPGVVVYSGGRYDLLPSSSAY

[4] = target: T4, 5-hydroxytryptamine receptor 1E (Homo sapiens, UniProt P28566)
T4 construct: gene HTR1E

[5] = target: T5, C-C motif chemokine receptor 7 (Homo sapiens, UniProt P32248)
T5 construct: gene CCR7
T5 sequence (P32248 1-378): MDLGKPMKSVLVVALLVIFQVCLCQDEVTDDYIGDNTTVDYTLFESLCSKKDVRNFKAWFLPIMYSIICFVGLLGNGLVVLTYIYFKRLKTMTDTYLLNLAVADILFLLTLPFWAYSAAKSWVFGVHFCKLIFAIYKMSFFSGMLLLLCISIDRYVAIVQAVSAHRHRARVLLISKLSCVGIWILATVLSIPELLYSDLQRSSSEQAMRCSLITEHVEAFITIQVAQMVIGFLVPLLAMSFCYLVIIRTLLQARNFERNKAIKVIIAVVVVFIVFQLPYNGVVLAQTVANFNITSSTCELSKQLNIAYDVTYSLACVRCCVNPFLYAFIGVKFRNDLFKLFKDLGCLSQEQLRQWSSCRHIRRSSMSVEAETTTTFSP

[6] = target: T6, chemerin chemokine-like receptor 1 (Homo sapiens, UniProt Q99788)
T6 construct: gene CMKLR1
T6 sequence (Q99788 1-373): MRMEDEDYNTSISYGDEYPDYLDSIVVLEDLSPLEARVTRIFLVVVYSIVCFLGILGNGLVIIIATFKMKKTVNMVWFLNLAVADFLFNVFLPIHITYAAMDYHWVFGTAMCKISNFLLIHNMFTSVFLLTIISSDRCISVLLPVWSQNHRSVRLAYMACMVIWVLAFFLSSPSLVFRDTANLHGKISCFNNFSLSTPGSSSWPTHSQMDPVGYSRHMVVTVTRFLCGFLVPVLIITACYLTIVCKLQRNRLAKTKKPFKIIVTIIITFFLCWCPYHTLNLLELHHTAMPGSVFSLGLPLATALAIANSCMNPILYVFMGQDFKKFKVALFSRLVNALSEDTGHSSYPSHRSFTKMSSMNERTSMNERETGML

[7] = target: T7, neurotensin receptor type 2 (Homo sapiens, UniProt O95665)
T7 construct: gene NTSR2

[8] = read-out: % GPCR activation of 10μM GS441524 compared to TPA
[9] = read-out: % GPCR activation of 100μM Favipiravir compared to TPA
[10] = read-out: % GPCR activation of 10µM Molnupiravir compared to TPA
[11] = read-out: % GPCR activation of 10µM Remdesivir compared to TPA
[12] = read-out: % GPCR activation of 10μM Sofosbuvir compared to TPA

T1 sequence (Q99677 whole entry): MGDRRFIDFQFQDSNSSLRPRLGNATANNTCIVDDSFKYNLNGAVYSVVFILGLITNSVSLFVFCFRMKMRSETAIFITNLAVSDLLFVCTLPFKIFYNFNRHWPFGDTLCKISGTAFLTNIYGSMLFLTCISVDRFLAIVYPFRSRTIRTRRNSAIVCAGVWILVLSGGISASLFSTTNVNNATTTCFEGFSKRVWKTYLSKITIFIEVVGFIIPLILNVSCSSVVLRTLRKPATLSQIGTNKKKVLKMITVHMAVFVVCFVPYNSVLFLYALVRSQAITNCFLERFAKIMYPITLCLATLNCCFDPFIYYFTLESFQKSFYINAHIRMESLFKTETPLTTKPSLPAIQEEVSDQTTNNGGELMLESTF
T4 sequence (P28566 whole entry): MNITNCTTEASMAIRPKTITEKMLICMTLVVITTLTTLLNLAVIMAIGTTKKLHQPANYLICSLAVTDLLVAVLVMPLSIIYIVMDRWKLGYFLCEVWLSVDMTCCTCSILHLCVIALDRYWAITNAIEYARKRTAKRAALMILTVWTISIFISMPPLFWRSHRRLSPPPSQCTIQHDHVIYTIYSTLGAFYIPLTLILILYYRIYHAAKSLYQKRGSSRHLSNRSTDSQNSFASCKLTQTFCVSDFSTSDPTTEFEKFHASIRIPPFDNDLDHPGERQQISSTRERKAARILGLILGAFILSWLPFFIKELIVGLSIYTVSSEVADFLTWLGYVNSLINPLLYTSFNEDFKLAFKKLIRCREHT
T7 sequence (O95665 whole entry): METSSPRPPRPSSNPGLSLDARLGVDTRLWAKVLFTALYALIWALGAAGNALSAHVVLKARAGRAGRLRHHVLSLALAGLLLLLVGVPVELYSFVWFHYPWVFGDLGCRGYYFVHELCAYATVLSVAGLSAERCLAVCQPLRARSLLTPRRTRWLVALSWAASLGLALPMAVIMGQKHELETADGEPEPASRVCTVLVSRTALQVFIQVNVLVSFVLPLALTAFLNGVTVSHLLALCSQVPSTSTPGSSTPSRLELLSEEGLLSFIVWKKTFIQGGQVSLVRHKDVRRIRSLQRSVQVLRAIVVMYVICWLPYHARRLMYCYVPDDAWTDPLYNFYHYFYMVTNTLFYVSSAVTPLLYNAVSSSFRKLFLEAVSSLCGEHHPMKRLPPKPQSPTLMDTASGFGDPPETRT

Structure (SMILES): CCC(CC)COC(=O)[C@H](C)N[P@](=O)(OC[C@H]1O[C@@](C#N)(c2ccc3c(N)ncnn23)[C@H](O)[C@@H]1O)Oc1ccccc1 [remdesivir]
activity at 10 µM [1, 11]: -0.0834% | activity at 10 µM [2, 11]: 1.47% | activity at 10 µM [3, 11]: 3.55% | activity at 10 µM [4, 11]: -0.0718% | activity at 10 µM [6, 11]: -1.38% | activity at 10 µM [7, 11]: -1.86%

Structure (SMILES): CC(C)OC(=O)[C@H](C)N[P@](=O)(OC[C@H]1O[C@@H](n2ccc(=O)[nH]c2=O)[C@](C)(F)[C@@H]1O)Oc1ccccc1 [sofosbuvir]
activity at 10 µM [1, 12]: 3.13% | activity at 10 µM [2, 12]: -2.67% | activity at 10 µM [3, 12]: -2.19% | activity at 10 µM [4, 12]: -1.21% | activity at 10 µM [5, 12]: -0.917% | activity at 10 µM [6, 12]: -0.939% | activity at 10 µM [7, 12]: 0.255%

Further lines, with some results ahead:

activity at 10 µM [1, 8]: 1.19% | activity at 10 µM [3, 8]: 1.98% | activity at 10 µM [4, 8]: -1.38% | activity at 10 µM [5, 8]: -0.998% | activity at 10 µM [6, 8]: -4.93% | activity at 10 µM [7, 8]: 1.01%
Structure (SMILES): N#C[C@@]1(c2ccc3c(N)ncnn23)O[C@H](CO)[C@@H](O)[C@H]1O [GS441524]
activity at 10 µM [2, 8]: -0.459%

activity at 100 µM [1, 9]: -0.546% | activity at 100 µM [2, 9]: 0.28% | activity at 100 µM [3, 9]: 1.4% | activity at 100 µM [4, 9]: 0.555% | activity at 100 µM [5, 9]: -0.335% | activity at 100 µM [6, 9]: 2.98% | activity at 100 µM [7, 9]: -3.41%
Structure (SMILES): NC(=O)c1nc(F)cnc1O [favipiravir, 6-fluoro-3-hydroxy-2-pyrazinecarboxamide]

activity at 10 µM [1, 10]: -0.213% | activity at 10 µM [2, 10]: -0.792% | activity at 10 µM [3, 10]: -2.92% | activity at 10 µM [4, 10]: -0.994% | activity at 10 µM [5, 10]: 0.546% | activity at 10 µM [6, 10]: -0.313% | activity at 10 µM [7, 10]: 0.128%
Structure (SMILES): CC(C)C(=O)OC[C@H]1O[C@@H](n2ccc(NO)nc2=O)[C@H](O)[C@@H]1O [molnupiravir]
